Columns and labels:
[1] = Naproxen aldehyde solubility in acetone (visual cloud point / clear point); format: physicochemical
Text: Solubility data for solids in acetone solvent were obtained by visually obtaining a "cloud" point for a solution of known composition by slowly cooling the solution. After obtaining a "cloud" point the solution was slowly heated until a "dear" point was observed. The "clear" point represents the saturation temperature of the solution and the "cloud" point the temperature at which massive spontaneous nucleation occurs.
Naproxen aldehydes [i.e., R- and S-2-(6-methoxy-2-naphthyl)propionaldehyde]are very soluble in acetone.

[2] = background, in words; cited from earlier work

solubility in acetone ([1]; in words)	temperature dependence of solubility ([1]; in words)	Cloud Point ([1]; solids 22.0 wt %, solids/liquid ratio 0.28, massive spontaneous nucleation temperature) [°C]	Clear Point ([1]; solids 22.0 wt %, solids/liquid ratio 0.28, saturation temperature) [°C]	Cloud Point ([1]; solids 29.0 wt %, solids/liquid ratio 0.41, massive spontaneous nucleation temperature) [°C]	Clear Point ([1]; solids 29.0 wt %, solids/liquid ratio 0.41, saturation temperature) [°C]	Cloud Point ([1]; solids 30.0 wt %, solids/liquid ratio 0.43, massive spontaneous nucleation temperature) [°C]	Clear Point ([1]; solids 30.0 wt %, solids/liquid ratio 0.43, saturation temperature) [°C]	Cloud Point ([1]; solids 35.3 wt %, solids/liquid ratio 0.55, massive spontaneous nucleation temperature) [°C]	Clear Point ([1]; solids 35.3 wt %, solids/liquid ratio 0.55, saturation temperature) [°C]	Cloud Point ([1]; solids 47.0 wt %, solids/liquid ratio 0.89, massive spontaneous nucleation temperature) [°C]	Clear Point ([1]; solids 47.0 wt %, solids/liquid ratio 0.89, saturation temperature) [°C]	SMILES	anti-arthritic activity [2]
very soluble	very sensitive to temperature	-15	1	-17	6	-6	11	-9	15	5	25	COc1ccc2cc(C(C)C=O)ccc2c1 (racemic) [Naproxen Aldehyde, R- and S-2-(6-methoxy-2-naphthyl)propionaldehyde]	–
–	–	–	–	–	–	–	–	–	–	–	–	COc1ccc2cc([C@H](C)C(=O)O)ccc2c1 [S enantiomer, S-2-(6-methoxy-2-naphthyl)propionic acid]	potent anti-arthritic agent

— patent US5739385A, “Process for preparing optically active carboxylic acids” (Union Carbide Chemicals & Plastics Technology Corporation, priority 1995, dated 1998)
